# From patent US4282111A (Betz Laboratories, Inc., priority 1980, dated 1981)
# Columns and labels:
# [1] = low temperatures such as room temperature; background; cited from earlier work
# [2] = background, cited from earlier work
# [3] = thermal decomposition of aqueous solutions in autoclaves (Example 5); settings: hydrazine 60 ppm, 435 psig, 450 °F, 4 hours
# Experimental: The aqueous solutions (approximately 50-60 ppm in demineralized water) were subjected to specified temperature and pressure conditions for 4 hours prior to chemical analysis.
# [4] = background; cited from earlier work
# [5] = Cohn and Powell, J. Amer. Chem. Soc., 76, 2568 (1954); cited from earlier work
# [6] = oxygen scavenging in stainless steel hot water flow system at elevated temperature and pressure (Example 1); settings: for % O2 Removed: 78±3°C, 4±1 psig, 4±0.2 min contact, feedwater: hydrazine 96 ppm pH 10.3 O2 1.8 ppm (average of 9 runs), hydroquinone 100 ppm pH 8.9 O2 2.3 ppm, p-phenylenediamine 69 ppm pH 10.9 O2 2.0 ppm, o-phenylenediamine 58 ppm pH 10.2 O2 2.0 ppm, resorcinol 90 ppm pH 9.8 O2 1.8 ppm, values below 20% may be artifacts; for oxygen scavenging in the test water (in words): conclusion from TABLE 1
# Experimental: In a first series of tests, the oxygen scavenging efficacies of various materials were evaluated under conditions of elevated temperature and pressure. The test apparatus used was essentially a stainless steel hot water flow system equipped with appropriate monitoring instrumentation. Demineralized feedwater, adjusted to the appropriate pH and initial dissolved oxygen level (controlled by nitrogen sparging), was pumped from a reservoir at ambient temperature into a once-through heater. Temperature was monitored continuously by means of thermocouples at several locations along the length of the flow tubing. A solution containing the oxygen scavenger test material was loaded into a pump driven syringe and fed continuously to the heated flow stream through a port containing a stainless steel ribbon mixing baffle. The feedwater containing dissolved oxygen and the test material then traversed the flow tubing via a by-pass comprising an additional length of coiled tubing. Contact (or reaction) time of the test material and dissolved oxygen was governed by the choice of coil length. The tendency of the temperature to drop during residence in the coiled tubing was offset by the use of thermostatted heating tapes which maintained the temperature in this tubing at 78°±3°C. Upon exiting the coiled tubing, the stream flowed through a sample cooler to render the temperature of the liquid compatible with the operating range of a membrane-type dissolved oxygen probe. The cooled liquid was analyzed for dissolved oxygen via a D.O. flow cell, and pH was potentiometrically monitored in the flow tube immediately downstream of the D.O. probe. Outputs of the temperature, pH and dissolved oxygen probes during operation were monitored via strip chart recorders. The final destination of the reaction mixture was a reservoir which could be drained for analysis of reaction products, if desired.
# Temperature in the system could be maintained at 78°±3° C. under 4±1 psig. Residence time of the feedwater in the flow tube from chemical feed point to D.O. flow cell outlet was 4±0.2 minutes. Approximately 3.5 minutes of this total was spent in a 40' length of 0.402 inch i.d. coiled tubing. Entry into and residence in the sample cooler accounted for 0.5 minute of the total contact time.
# According to an article by J. W. Cohn and R. E. Powell, Jr., J. Amer.
# The test solutions were prepared by initially mixing 10 grams of test material and 90 grams of demineralized water in glass bottles and allowing the mixture to remain in a shaker for several hours. If complete dissolution for a given material was observed after shaking, the pH of the solution was measured. When the pH of the solution was below 10.0, 7 N sodium hydroxide was added dropwise until this value was reached. The quantity of added sodium hydroxide was recorded and later used in corrections for the active concentration of the solution. When the pH value of a stock solution was above pH 10.0 without requiring the addition of caustic, the solution was not further modified.
# Results of these tests are reported in TABLE 1 below in terms of percent oxygen removed from the test stream. The precision of the initial and final dissolved oxygen values reported is approximately ±10%. […] The experimental uncertainties decrease with increasing values of percent dissolved oxygen removal.
# [7] = for % O2 Removed, 1 Minute: hydroquinone: pH 8.6, 22.5 °C, 0.94 mol/mol O2, initial O2 7.7 ppm
# Text: The test apparatus basically consisted of a 1 liter three-necked flask fitted with a dissolved oxygen probe and a pH electrode. The intent of this apparatus was to show reaction kinetics differences rather than precise measurements (within seconds) of reaction times.
# The flask was filled with deionized water which had been stripped of some dissolved oxygen by bubbling nitrogen through a diffuser stone. The pH was adjusted to the desired level with sodium hydroxide. The flask was sealed with a rubber septum, the dissolved oxygen probe and an inlet stopper. A magnetic stirrer bar was left in the flask for mixing. The mixer was turned on, and dissolved oxygen and temperature readings were recorded until the dissolved oxygen reached a constant value. Next, the appropriate quantity of additive was injected through the septum using a hypodermic syringe. The initial mole ratio of treatment to dissolved oxygen was determined by weighing feed chemical and measuring the oxygen concentration. […] Dissolved oxygen and temperature readings were then taken at appropriate time intervals.
# [8] = oxygen scavenging in feedwater of a working boiler (Example 2)
# Experimental: In order to compare the performance of hydroquinone with that of hydrazine under field-type conditions, a series of experiments were conducted on the feedwater of a working boiler. The test materials were fed to the deaerator storage tank, and the resultant change, if any, in dissolved oxygen level was measured on a sample flowing from the feedwater line through a membrane-type dissolved oxygen probe.
# During the tests, a relatively wide range of experimental conditions was encountered among the test parameters, reflecting the difficulty of attempting to obtain precise data during experiments performed on a working boiler.
# In order to provide some point of reference for judging oxygen scavenging efficacies while taking into account the diverse conditions experienced on a daily basis, hydrazine control runs were performed, whenever possible, under feedwater and boiler conditions similar to those encountered during testing of other test materials. The hydrazine control runs are reported below in TABLE 3 also in terms of % oxygen removal.
# test rats = settings: conclusion from TABLE 4; cited from earlier work
# [9] = hydrazine: pH 9.2, 26.5 °C, 10.5 mol/mol O2, initial O2 0.87 ppm
compound,measurement,setting,value
NN [hydrazine],rate of hydrazine-oxygen reaction (in words),[1],very slow at low temperatures
same,temperature above which it decomposes,"[2]; to nitrogen, hydrogen and ammonia",Above 400 °F
same,% Decomposition,[3],20%
same,toxicity (in words),[4],extreme toxicity and carcinogenicity
same,pH of maximum oxygen scavenging efficacy in solution,[5],10.0-10.5
same,% O2 Removed,[6],91 ± 4%
same,"% O2 Removed, 1 Minute",[7]; [9],1%
same,"% O2 Removed, 5 Minutes","[7]; 5 minutes, hydrazine: pH 9.2, 26.5 °C, 10.5 mol/mol O2, initial O2 0.87 ppm",2%
same,% O2 Removed,"[8]; hydrazine control run 1: 1.6 ppm actives, pH 8.8, steam load 11 (1000 lbs./hr.), initial O2 13.0 ppb",69%
same,% O2 Removed,"[8]; hydrazine control run 2: 1.1 ppm actives, pH 9.4, steam load 15 (1000 lbs./hr.), initial O2 4.0 ppb",50%
same,% O2 Removed,"[8]; hydrazine control run 3: 1.2 ppm actives, pH 8.6, steam load 15 (1000 lbs./hr.), initial O2 6.0 ppb",60%
same,% O2 Removed,"[8]; hydrazine control run 4: 1.0 ppm actives, pH 8.8, steam load 15 (1000 lbs./hr.), initial O2 5.8 ppb",55%
same,% O2 Removed,"[8]; hydrazine control run 5: 0.8 ppm actives, pH 9.4, steam load 11 (1000 lbs./hr.), initial O2 3.5 ppb",31%
same,% O2 Removed,"[8]; hydrazine control run 6: 1.6 ppm actives, pH 9.6, steam load 14 (1000 lbs./hr.), initial O2 4.0 ppb",30%
Oc1ccc(O)cc1 [hydroquinone],toxicity compared to hydrazine (in words),test rats,significantly less toxic as compared to hydrazine
same,% O2 Removed,[6],97%
same,oxygen scavenging in the test water (in words),[6],"at least equivalent to, if not better than, hydrazine"
same,"% O2 Removed, 1 Minute",[7]; [9],29%
same,reactivity at low temperature with oxygen (in words),"[7]; conclusion from TABLE 5, compared to hydrazine","superiority of hydroquinone, as compared to hydrazine"
same,% O2 Removed,"[8]; 1.9 ppm actives, pH 8.4, steam load 15 (1000 lbs./hr.), initial O2 8.0 ppb",88%
same,% O2 Removed,"[8]; 1.9 ppm actives, pH 8.4, steam load 15 (1000 lbs./hr.), initial O2 10.0 ppb",90%
same,efficacy in treating boiler feedwater (in words),[8]; conclusion from TABLES 2 and 3,compared favorably with hydrazine
Nc1ccccc1N [o-phenylenediamine],% O2 Removed,[6],10%
same,oxygen scavenging in the test water (in words),[6],did not work as oxygen scavengers
Nc1ccc(N)cc1 [p-phenylenediamine],% O2 Removed,[6],35%
same,oxygen scavenging in the test water (in words),[6],did not work as oxygen scavengers
Oc1cccc(O)c1 [resorcinol],% O2 Removed,[6],0%
same,oxygen scavenging in the test water (in words),[6],did not work as oxygen scavengers
O=S([O-])[O-].[Na+].[Na+] [sodium sulfite],decomposition in the boiler (in words),[2]; at high pressures,decomposes in the boiler to form sulfur dioxide and hydrogen sulfide
